# Source: EP1505089B1, “Cationic (alkyl)acrylamide derivative, polymer based on these derivates, and transfection system comprising said polymer” (OctoPlus Technologies B.V., priority 2003, dated 2005)
# Experiment: Degradation of the monomer followed with RP-HPLC
# Format: physicochemical
# Details: 37 °C
# Method: Degradation of the monomer was followed with RP-HPLC at 37 °C. The relative peak areas of the monomer and its degradation product HPMA as a function of time are depicted in figure 1(A) for pH 10, 1(B) for pH 7.4 and 1(C) for pH 5.0.
smiles,measurement,setting,value
C=C(C)C(=O)NCC(C)OC(=O)OCCN(C)C (stereo not drawn) [HPMA-DMAE],half-life of the monomer,"pH 5.0, RP-HPLC",380 h
same,half-life of the monomer,"pH 7.4, RP-HPLC",9.6 h
same,half-life of the monomer,"pH 10, RP-HPLC",1.1 h
